Test results published in patent US4065461A, “Amino containing pyridyloxy propanols” (Aktieselskabet Grindstedvaerket, priority 1975, dated 1977).
Where two headings read alike, the source gives them in different places.

How the values were obtained:
mice = conditions: for toxicity, in words: conclusion from Table II
β2 -receptors = target: T1, β2 -receptors (Felis catus, UniProt Q9TST5); test: β2-adrenoreceptor blockade: antagonism of isoprenaline-induced reduction in tone in the peripheral vasculature (hind quarter perfusion pressure) in anaesthetized cats; type: in vivo; conditions: cat, read-out: Approximate ED50 value for β2 -receptor blockade
T1 construct: The test animals were adult cats of either sex; from tissue; host or cells: hind quarter vasculature of anaesthetized cat, in vivo
T1 sequence (Q9TST5 whole entry, the tested form may be a part): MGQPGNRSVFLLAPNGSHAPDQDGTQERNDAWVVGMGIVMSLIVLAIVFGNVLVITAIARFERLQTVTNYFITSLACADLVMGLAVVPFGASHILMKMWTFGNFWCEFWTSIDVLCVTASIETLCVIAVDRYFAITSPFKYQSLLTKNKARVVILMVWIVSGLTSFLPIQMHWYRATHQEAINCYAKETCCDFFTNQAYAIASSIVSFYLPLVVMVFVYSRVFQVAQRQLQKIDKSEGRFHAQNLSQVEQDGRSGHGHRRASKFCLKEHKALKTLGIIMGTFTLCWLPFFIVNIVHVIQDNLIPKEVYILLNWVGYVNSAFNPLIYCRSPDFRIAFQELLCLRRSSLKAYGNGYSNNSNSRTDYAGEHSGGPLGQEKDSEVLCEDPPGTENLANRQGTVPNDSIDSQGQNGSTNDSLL
Excerpt: (§1) The examinations thus comprise selective effect against isoprenaline-induced changes in heart rate, which are presumed to be elicited by stimulation of β1 -receptors; and against the reduction in tone in the peripheral vasculature induced by the said agonist is presumed to be due to stimulation of β2 -receptors.
(§2) The test animals were adult cats of either sex.
(§3) The heart rate was derived electronically from the blood pressure in the right carotid artery, and the reduction in tone in the peripheral vasculature was determined by recording changes in hind quarter vascular resistance.
(§4) Each cat was dosed repeatedly at 15 minutes' intervals throughout the experiment with 1 μg isoprenaline as the hydrochloride, the dose of this and the other standard drugs being stated in terms of the base. When constant responses of both heart rate and hind quarter perfusion pressure were obtained, a dose of 4 μg/kg of one of the test compounds was administered intraveneously 2 minutes before the isoprenaline dose. This initial dose of the test compound was administered again 15 minutes later. Thereafter, the test compound was administered at 15 minutes' intervals, each successive dose being twice the preceeding dose, the injection always being given two minutes prior to the next isoprenaline dose. […] In this way, cumulative dose-response curves for the effects of each test compound could be calculated and approximately ED50 values obtained.

in vivo = conditions: mouse, iv
β1 -receptors [1] = test: β1-adrenoreceptor blockade: antagonism of isoprenaline-induced changes in heart rate in anaesthetized cats; type: in vivo; conditions: for ratio between these two activities (ED50 β2 / ED50 β1): anaesthetized cats, intravenous, Table I; for selectivity for β1 -receptors versus β2 -receptors, in words: conclusion from Table I
Excerpt: as §1, §2, §3, §4

β1 -receptors [2] = target: T2, β1 -receptors (Felis catus, UniProt Q9TST6); test: as above; type: in vivo; conditions: for ED50: cat, read-out: Approximate ED50 value for β1 -receptor blockade; for potency as antagonist of the β1 -receptors relative to propranolol: compared with propranolol, Table I; for activity as antagonist of the β1 -receptors, in words: conclusion from Table I
T2 construct: The test animals were adult cats of either sex; from tissue; host or cells: heart of anaesthetized cat, in vivo
T2 sequence (Q9TST6 whole entry): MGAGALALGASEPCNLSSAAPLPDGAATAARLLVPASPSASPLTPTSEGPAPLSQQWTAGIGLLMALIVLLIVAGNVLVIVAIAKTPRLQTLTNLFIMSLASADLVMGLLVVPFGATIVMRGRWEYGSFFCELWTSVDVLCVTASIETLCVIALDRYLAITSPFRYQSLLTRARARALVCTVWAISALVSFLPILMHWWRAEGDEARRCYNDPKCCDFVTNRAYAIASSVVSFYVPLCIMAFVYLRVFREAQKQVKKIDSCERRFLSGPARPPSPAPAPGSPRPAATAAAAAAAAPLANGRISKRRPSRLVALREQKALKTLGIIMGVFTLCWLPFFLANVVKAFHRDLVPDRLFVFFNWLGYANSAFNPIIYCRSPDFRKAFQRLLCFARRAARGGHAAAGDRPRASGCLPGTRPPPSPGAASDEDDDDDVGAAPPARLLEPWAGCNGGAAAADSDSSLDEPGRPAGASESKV
Excerpt: as §1, §2, §3, §4

[3] = test system: β1 -receptors and β2 -receptors; conditions: background; cited from earlier work
[4] = anaesthetized cats, intravenous, cumulative doses, isoprenaline-induced change in hind quarter perfusion pressure
[5] = anaesthetized cats, intravenous, cumulative doses, isoprenaline-induced change in heart rate

With `CC(C)NCC(O)COc1cccnc1N` (centres unmarked) [Compound 2, 1-Isopropylamino-3-[(2-amino-3-pyridyl)oxy]-2-propanol] the “toxicity, in words” value (mice; intravenous, mice) was “somewhat less toxic”, the LD50 (mice; mouse, in vivo, iv) was 192.0 mg/kg and the ED50 (β2 -receptors; [4]) was 3.5 mg/kg. For the same compound, the LD50 (in vivo) was 203 mg/kg, the “ratio between these two activities (ED50 β2 / ED50 β1)” value (β1 -receptors [1]) was 43.8 and the “selectivity for β1 -receptors versus β2 -receptors, in words” value (from here on “selectivity for β1 -receptors versus β2”) (β1 -receptors [1]) was “high degree of selectivity”. The ED50 (β1 -receptors [2]; [5]) was 0.08 mg/kg and the “potency as antagonist of the β1 -receptors relative to propranolol” value (“potency … -receptors relative to propranolol” below) (β1 -receptors [2]) was “approximately equal to”.

For `CC(C)NCC(O)COc1cccnc1` (centres unmarked) [Compound 1, 1-Isopropylamino-3-(3-pyridyloxy)-2-propanol], the “toxicity, in words” value (mice; intravenous, mice) was “low toxicity”, the LD50 (mice; mice, female, intravenous) was 285.2 mg/kg and the ED50 (β2 -receptors; iv) was 1.45 mg/kg. For the same compound, the LD50 (in vivo) was 261 mg/kg, the “ratio between these two activities (ED50 β2 / ED50 β1)” value (β1 -receptors [1]) was 207.1 and the “selectivity for β1 -receptors versus β2” value (β1 -receptors [1]) was “outstanding selectivity as β1 -adrenoblocking agent”. The ED50 (β1 -receptors [2]; iv) was 0.007 mg/kg, the “potency … -receptors relative to propranolol” value (β1 -receptors [2]) was “greater than” and the “activity as antagonist of the β1 -receptors, in words” value (β1 -receptors [2]) was “extremely active”.

In the case of `CC(=O)Nc1ccc(OCC(O)CNC(C)C)cc1` (centres unmarked) [Compound 3, practolol], the “receptor blocking profile, in words” value [3] is given as “substantial blocking activity on the β1 -receptors and not on the β2 -receptors”, the LD50 (mice; mouse, in vivo, iv) is given as 31.6 mg/kg and the ED50 (β2 -receptors; [4]) is given as 10.4 mg/kg. For the same compound, the LD50 (in vivo) was 41.6 mg/kg, the “ratio between these two activities (ED50 β2 / ED50 β1)” value (β1 -receptors [1]) was 28.9 and the “selectivity for β1 -receptors versus β2” value (β1 -receptors [1]) was “approximately thirty times more selectivity against the β1 -receptors than against β2 -receptors”. The ED50 (β1 -receptors [2]; [5]) was 0.36 mg/kg and the “potency … -receptors relative to propranolol” value (β1 -receptors [2]) was “much less active than propranolol”.

`Cc1ccc(OCC(O)CNC(C)C)cn1` (centres unmarked) [Compound 5] showed an LD50 (mice; mice, female, intravenous) of 239.4 mg/kg, an ED50 (β2 -receptors; iv) of over 4.1 mg/kg and an LD50 (in vivo) of 285 mg/kg. The “ratio between these two activities (ED50 β2 / ED50 β1)” value (β1 -receptors [1]) was over 5.8, the “selectivity for β1 -receptors versus β2” value (β1 -receptors [1]) was “rather low degree of selectivity” and the ED50 (β1 -receptors [2]; iv) was 0.7 mg/kg. The “activity as antagonist of the β1 -receptors, in words” value (β1 -receptors [2]) was “not very active”.

For `CC(C)NCC(O)COc1cccc2ccccc12` (centres unmarked) [Compound 4, 1-(isopropylamino)-3-(1-naphthyloxy)-2-propanol], the “receptor blocking profile, in words” value [3] is given as “act more or less indiscriminately on both types of β-receptors”.

Compound `CC(C)NCC(O)COc1cccnc1Cl` (centres unmarked) [Compound 6] has an LD50 (mice; mice, female, intravenous) of 180.2 mg/kg, an ED50 (β2 -receptors; iv) of 1.35 mg/kg and an LD50 (in vivo) of 165 mg/kg. The “ratio between these two activities (ED50 β2 / ED50 β1)” value (β1 -receptors [1]) was 45.0 and the ED50 (β1 -receptors [2]; iv) was 0.03 mg/kg.
